# Results from patent publication US20250051375A1, “ANTI-HIV COMPOUNDS” (Gilead Sciences, Inc., priority 2023, published 2025).
# Where two headings read alike, the source gives them in different places.
# Legend:
# [1] = tested on: HIV-1 IIIB strain; experiment: MT-4 HIV Wild Type Virus Infection Assay (IIIB Virus); type: cell-based; conditions: Human immunodeficiency virus 1, IIIB, MT4, 120 h, MT-4 cells acutely infected with HIV-1 IIIB, 5 day incubation, Cell-titer glo
# In short: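 MT-4 cells at 2×10^6 cells/ml in RPMI/10% FBS were acutely infected with HIV-1 IIIB for 1 h at 37° C, diluted 25× and added to serially diluted compounds. After 5 days at 37° C, viability read by CellTiter-Glo luminescence; EC50 from dose-response curves.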
# [2] = target: bovine intestinal alkaline phosphatase (Bos taurus (Bovine), UniProt P19111); experiment: BiALP: conversion by bovine intestinal alkaline phosphatase; type: in vitro ADME; conditions: 2 μM substrate, 100 ng/mL iALP, Tris pH 7.8, 37° C., 60 minutes; for [Intermediate A] or [Amprenavir]: parent formed
# In short: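 LC-MS (positive mode) quantified analyte/internal-standard peak area ratios, referenced to 2 μM parent product. This followed a 60 min, 37° C reaction of 2 μM substrate in Tris buffer pH 7.8 (1 mM MgCl2, 1 mM ZnCl2) containing 100 ng/mL iALP or buffer alone, run in triplicate.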
# [3] = Intestinal S9 Assay (human GI S9); type: in vitro ADME; conditions: 1.0 mg/mL S9 protein; for half-life at 2 μM: human, TRIS pH 7.4, read-out: Human GI S9 T½
# In short: (§1)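 Pooled dog or human intestinal S9 at 1.0 mg/mL protein in TRIS buffer pH 7.4 with ZnCl2 and MgCl2; compound at 2 μM, sampled 0–120 min and quenched. Remaining parent by LC-MS peak area ratio; half-life from first-order exponential decline fit.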
# [4] = Intestinal S9 Assay (dog GI S9); type: in vitro ADME; conditions: 1.0 mg/mL S9 protein; for half-life at 2 μM: dog, TRIS pH 7.4, read-out: Dog GI S9 T½
# In short: as §1
# [5] = PBS Stability Assay; type: physicochemical; conditions: phosphate buffered saline pH 7.4; for half-life at 2 μM: buffer, pH 7.4, 2 μM, read-out: PBS T½; for PBS T½: 2 μM
# In short: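 Half-life derives from first-order exponential decline of % compound remaining, quantified by LC-MS analyte/internal-standard peak-area ratio. Compound (2 μM final) sat in pH 7.4 phosphate-buffered saline, with aliquots quenched into acidified acetonitrile containing labetalol from 0 to 120 min.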
# [6] = Solubility in FaSSIF; conditions: 23 °C, pH 6.5, fassif, thermodynamic from solid
# In short: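 Concentration measured by HPLC-UV after solid compound was dosed at 5 mg/mL into pH 6.5 fasted-state simulated intestinal fluid containing taurocholate and lecithin (4:1 molar) and vortexed.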
# bovine intestinal alkaline phosphatase, sequence (P19111 20-506): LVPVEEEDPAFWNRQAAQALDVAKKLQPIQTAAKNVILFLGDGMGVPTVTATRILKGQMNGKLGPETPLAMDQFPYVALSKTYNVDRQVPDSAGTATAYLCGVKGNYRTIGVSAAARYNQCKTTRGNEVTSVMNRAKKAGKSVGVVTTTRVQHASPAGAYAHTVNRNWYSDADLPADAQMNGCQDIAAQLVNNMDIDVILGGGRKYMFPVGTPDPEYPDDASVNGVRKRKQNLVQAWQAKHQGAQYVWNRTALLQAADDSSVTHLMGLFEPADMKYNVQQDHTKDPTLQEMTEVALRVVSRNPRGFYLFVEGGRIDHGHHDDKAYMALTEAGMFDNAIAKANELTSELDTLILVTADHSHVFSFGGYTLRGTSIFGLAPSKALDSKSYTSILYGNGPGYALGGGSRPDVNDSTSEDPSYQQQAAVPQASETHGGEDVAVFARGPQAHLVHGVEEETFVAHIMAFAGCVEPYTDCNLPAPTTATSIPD
SMILES,EC50 [1],[Compound] [2],biALP Intermediate A or [Amprenavir] (% of total) [2],[Intermediate A] or [Amprenavir] [2],half-life at 2 μM [3],half-life at 2 μM [4],half-life at 2 μM [5],solubility at 2 h [6],EC50 ([1]; read-out: EC50),"solubility ([6]; FaSSIF (pH 6.5) solubility, FaSSIF pH 6.5, dose 5 mg/mL, 2-hour incubation, ambient temperature)","Human GI S9 [Intermediate A] ([3]; 2 μM, TRIS pH 7.4)","Human GI S9 [Intermediate A] % ([3]; 2 μM, TRIS pH 7.4)","Dog GI S9 [Intermediate A] ([4]; 2 μM, TRIS pH 7.4)","Dog GI S9 [Intermediate A] % ([4]; 2 μM, TRIS pH 7.4)",PBS T½ [5],"Human GI S9 T½ ([3]; 2 μM, TRIS pH 7.4)"
COC(=O)N[C@H](C(=O)N[C@@H](Cc1ccc(C#Cc2cnc(N3CC4CCC(C3)N4C3COC3)nc2)cc1)[C@H](CN(Cc1c(F)cc(-c2ccn(C(F)F)n2)cc1F)NC(=O)[C@@H](NC(=O)OC)C(C)(C)C(F)(F)F)OC(=O)CC(C)(C)c1c(CC(=O)N2CC[C@@H]2C(=O)O)cc(C)cc1OP(=O)(O)O)C(C)(C)C(F)(F)F [Example 9],241 nM,2004.9 nM,1.8 % of total,36.5 nM,8.93 h,1.14 h,10.4 h,2300 µg/mL,–,–,–,–,–,–,–,–
COC(=O)N[C@H](C(=O)N[C@@H](Cc1ccc(C#Cc2ccc(N3CC4CCC(C3)N4C3COC3)nc2)cc1)[C@H](CN(Cc1c(F)cc(-c2ccn(C(F)F)n2)cc1F)NC(=O)[C@@H](NC(=O)OC)C(C)(C)C(F)(F)F)OC(=O)CC(C)(C)c1c(CC(=O)Nc2cccc(C(=O)OO)c2)cc(C)cc1CP(=O)(O)O)C(C)(C)C(F)(F)F [Example 15],162 nM,2690.4 nM,–,–,8.95 h,3.95 h,4.8 h,< 1000 µg/mL,–,–,–,–,–,–,–,–
"COC(=O)N[C@H](C(=O)N[C@@H](Cc1ccc(C#Cc2cnc(N3CC4CCC(C3)N4C3COC3)nc2)cc1)[C@H](CN(Cc1c(F)cc(-c2ccn(C(F)F)n2)cc1F)NC(=O)[C@@H](NC(=O)OC)C(C)(C)C(F)(F)F)OC(=O)CC(C)(C)c1c(CC(=O)NCc2ccc(C#N)cc2)cc(C)cc1OP(=O)(O)O)C(C)(C)C(F)(F)F [Example 51, (5S,10S,11S,14S)-8-(4-(1-(difluoromethyl)-1H-pyrazol-3-yl)-2,6-difluorobenzyl)-11-(4-((2-(8-(oxetan-3-yl)-3,8-diazabicyclo[3.2.1]octan-3-yl)pyrimidin-5-yl)ethynyl)benzyl)-3,6,13,16-tetraoxo-5,14-bis(1,1,1-trifluoro-2-methylpropan-2-yl)-2,17-dioxa-4,7,8,12,15-pentaazaoctadecan-10-yl 3-(2-(2-((4-cyanobenzyl)amino)-2-oxoethyl)-4-methyl-6-(phosphonooxy)phenyl)-3-methylbutanoate]",636 nM,2331.5 nM,–,–,7.98 h,8.29 h,6.71 h,< 1000 µg/mL,–,–,–,–,–,–,–,–
COC(=O)N[C@H](C(=O)N[C@@H](Cc1ccc(C#Cc2cnc(N3CC4CCC(C3)N4C3COC3)nc2)cc1)[C@H](CN(Cc1c(F)cc(-c2ccn(C(F)F)n2)cc1F)NC(=O)[C@@H](NC(=O)OC)C(C)(C)C(F)(F)F)OC(=O)CC(C)(C)c1c(CC(=O)O)cc(C)cc1OP(=O)(O)O)C(C)(C)C(F)(F)F [Example 4],–,1627.4 nM,–,–,7.74 h,1.69 h,9.43 h,–,20.7 nM,272 µg/mL,–,–,–,–,–,–
COC(=O)N[C@H](C(=O)N[C@@H](Cc1ccc(C#Cc2cnc(N3CC4CCC(C3)N4C3COC3)nc2)cc1)[C@H](CN(Cc1c(F)cc(-c2ccn(C(F)F)n2)cc1F)NC(=O)[C@@H](NC(=O)OC)C(C)(C)C(F)(F)F)OC(=O)CC(C)(C)c1c(CC(=O)NCC(=O)O)cccc1OP(=O)(O)O)C(C)(C)C(F)(F)F [Example 7],23.2 nM,1590.8 nM,9.4 % of total,164.7 nM,2.27 h,0.457 h,8.72 h,5490 µg/mL,–,–,404.7 nM,31.3%,1224.2 nM,91%,–,–
COC(=O)N[C@H](C(=O)N[C@@H](Cc1ccc(C#Cc2cnc(N3CC4CCC(C3)N4C3COC3)nc2)cc1)[C@H](CN(Cc1c(F)cc(-c2ccn(C(F)F)n2)cc1F)NC(=O)[C@@H](NC(=O)OC)C(C)(C)C(F)(F)F)OC(=O)CC(C)(C)c1c(CC(=O)N[C@]2(C(=O)O)CCOC2)cc(C)cc1OP(=O)(O)O)C(C)(C)C(F)(F)F [Example 30],197 nM,1521.8 nM,–,–,4.11 h,1.17 h,8.56 h,5370 µg/mL,–,–,–,–,–,–,–,–
COC(=O)N[C@H](C(=O)N[C@@H](Cc1ccc(C#Cc2cnc(N3CC4CCC(C3)N4C3COC3)nc2)cc1)[C@H](CN(Cc1c(F)cc(-c2ccn(C(F)F)n2)cc1F)NC(=O)[C@@H](NC(=O)OC)C(C)(C)C(F)(F)F)OC(=O)CC(C)(C)c1c(CC(=O)NCc2cccc(C(=O)O)c2)cc(C)cc1OP(=O)(O)O)C(C)(C)C(F)(F)F [Example 53],113 nM,2028.9 nM,–,–,3.4 h,2.41 h,9.76 h,< 1000 µg/mL,–,–,–,–,–,–,–,–
COC(=O)N[C@H](C(=O)N[C@@H](Cc1ccc(C#Cc2cnc(N3CC4CCC(C3)N4C3COC3)nc2)cc1)[C@H](CN(Cc1c(F)cc(-c2ccn(C(F)F)n2)cc1F)NC(=O)[C@@H](NC(=O)OC)C(C)(C)C(F)(F)F)OC(=O)CC(C)(C)c1c(CC(=O)NCP(=O)(O)O)cc(C)cc1OP(=O)(O)O)C(C)(C)C(F)(F)F [Example 104],17.6 nM,1622.8 nM,–,–,2.1 h,0.15 h,4.75 h,2730 µg/mL,–,–,–,–,–,–,–,–
COC(=O)N[C@H](C(=O)N[C@@H](Cc1ccc(C#Cc2cnc(N3CC4CCC(C3)N4C3COC3)nc2)cc1)[C@H](CN(Cc1c(F)cc(-c2ccn(C(F)F)n2)cc1F)NC(=O)[C@@H](NC(=O)OC)C(C)(C)C(F)(F)F)OC(=O)CC(C)(C)c1c(CC(=O)NCCS(=O)(=O)O)cc(C)cc1OP(=O)(O)O)C(C)(C)C(F)(F)F [Example 24],130 nM,1717.9 nM,–,–,3.78 h,2.24 h,–,4660 µg/mL,–,–,–,–,–,–,13.2 h,–
COC(=O)N[C@H](C(=O)N[C@@H](Cc1ccc(C#Cc2cnc(N3CC4CCC(C3)N4C3COC3)nc2)cc1)[C@H](CN(Cc1c(F)cc(-c2ccn(C(F)F)n2)cc1F)NC(=O)[C@@H](NC(=O)OC)C(C)(C)C(F)(F)F)OC(=O)CC(C)(C)c1c(CC(=O)NCC(=O)O)cc(C)cc1OP(=O)(O)O)C(C)(C)C(F)(F)F [Example 74],194 nM,2044.2 nM,–,–,3.93 h,1.03 h,11.5 h,3340 µg/mL,–,–,–,–,–,–,–,–
"COC(=O)N[C@H](C(=O)N[C@@H](Cc1ccc(C#Cc2cnc(N3CC4CCC(C3)N4C3COC3)nc2)cc1)[C@H](CN(Cc1c(F)cc(-c2ccn(C(F)F)n2)cc1F)NC(=O)[C@@H](NC(=O)OC)C(C)(C)C(F)(F)F)OC(=O)CC(C)(C)c1c(CC(=O)NC/C(N)=N/O)cc(C)cc1OP(=O)(O)O)C(C)(C)C(F)(F)F [Example 28, (5S,10S,11S,14S)-8-(4-(1-(difluoromethyl)-1H-pyrazol-3-yl)-2,6-difluorobenzyl)-11-(4-((2-(8-(oxetan-3-yl)-3,8-diazabicyclo[3.2.1]octan-3-yl)pyrimidin-5-yl)ethynyl)benzyl)-3,6,13,16-tetraoxo-5,14-bis(1,1,1-trifluoro-2-methylpropan-2-yl)-2,17-dioxa-4,7,8,12,15-pentaazaoctadecan-10-yl 3-(2-(2-(((Z)-2-amino-2-(hydroxyimino)ethyl)amino)-2-oxoethyl)-4-methyl-6-(phosphonooxy)phenyl)-3-methylbutanoate]",307 nM,2478.7 nM,–,–,–,11.4 h,–,15 µg/mL,–,–,–,–,–,–,13.2 h,13.2 h
COC(=O)N[C@H](C(=O)N[C@@H](Cc1ccc(C#Cc2cnc(N3CC4CCC(C3)N4C3COC3)nc2)cc1)[C@H](CN(Cc1c(F)cc(-c2ccn(C(F)F)n2)cc1F)NC(=O)[C@@H](NC(=O)OC)C(C)(C)C(F)(F)F)OC(=O)CC(C)(C)c1c(CC(=O)N2CC[C@@H](C(=O)O)C2)cc(C)cc1OP(=O)(O)O)C(C)(C)C(F)(F)F [Example 112],224 nM,1708.7 nM,–,–,9.55 h,6.05 h,6.53 h,3790 µg/mL,–,–,–,–,–,–,–,–
